Test results from patent US20050209278A1, “Piperidinyl- and piperazinyl-sulfonylmethyl hydroxamic acids and their use as protease inhibitors” (priority 2002, published 2005).
Values joined by “and” are separate entries in the source; they are usually repeats but may differ in a detail not shown here. Identical values can stand only once.

Experiments:
MMP-1 = molecular target: T1, MMP-1 (Homo sapiens, UniProt P03956); assay: In vitro MMP inhibition, Ki determination (fluorogenic substrate II); format: biochemical; details: value outside parentheses; read-out: MMP-1 Ki
T1 construct: made in house; host or cells: MMP-1-transfected HT-1080 cells (spent media)
T1 sequence (P03956 100-469): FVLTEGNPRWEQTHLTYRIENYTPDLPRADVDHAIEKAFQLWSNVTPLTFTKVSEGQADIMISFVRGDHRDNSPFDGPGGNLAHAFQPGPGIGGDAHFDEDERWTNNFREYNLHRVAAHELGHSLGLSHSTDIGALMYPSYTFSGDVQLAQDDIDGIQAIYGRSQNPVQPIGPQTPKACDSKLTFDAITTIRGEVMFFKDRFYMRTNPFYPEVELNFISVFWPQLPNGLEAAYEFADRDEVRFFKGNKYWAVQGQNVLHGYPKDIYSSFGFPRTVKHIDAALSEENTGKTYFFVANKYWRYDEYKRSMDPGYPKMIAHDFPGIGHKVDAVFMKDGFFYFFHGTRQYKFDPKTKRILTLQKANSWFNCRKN

MMP-14 = molecular target: T2, MMP-14 (Homo sapiens, UniProt P50281); assay: as above; format: biochemical; details: value outside parentheses; read-out: MMP-14 Ki
T2 construct: The catalytic domain enzyme was expressed in E. coli inclusion bodies, solubilized in urea; made in house
Summary of the method: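 Apparent Ki was fitted with Morrison's equation from reaction rates at a single low enzyme level. Enzyme was APMA- or trypsin-activated refolded MMP-14 catalytic domain, buffered at pH 7.5 with 10 mM CaCl2.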

SMILES | Ki (MMP-1) | Ki (MMP-14)
CCc1ccc(C2CCN(S(=O)(=O)C3(C(=O)NO)CCN(CCOC)CC3)CC2)s1 [Example 314] | > 10000 nM | 1310 nM
O=C(NO)C1(S(=O)(=O)N2CCC(N3CCN(c4ccc(Cl)cc4)CC3)CC2)CCOCC1 [Example 315] | > 10000 nM | > 10000 nM
O=C(NO)C1(S(=O)(=O)N2CCN(c3ccc(-c4ccc(F)cc4F)cn3)CC2)CCOCC1 [Example 316] | 5520 nM | 910 nM
O=C(NO)C1(S(=O)(=O)N2CCN(c3ccc(-c4ccccc4F)cn3)CC2)CCOCC1 [Example 317] | 2410 nM | 653 nM
COc1ccccc1-c1ccc(N2CCN(S(=O)(=O)C3(C(=O)NO)CCOCC3)CC2)nc1 [Example 318] | > 10000 nM | 1490 nM
O=C(NO)C1(S(=O)(=O)N2CCN(c3ccc(-c4cccc(OC(F)(F)F)c4)cn3)CC2)CCOCC1 [Example 319] | > 10000 nM | > 10000 nM
O=C(NO)C1(S(=O)(=O)N2CCN(c3ccc(CCCC(F)(F)F)cc3)CC2)CCOCC1 [Example 320] | > 10000 nM | 3930 nM
O=C(NO)C1(S(=O)(=O)N2CCN(c3cnn(CCCC(F)(F)F)c(=O)c3)CC2)CCOCC1 [Example 321] | > 10000 nM | > 10000 nM
O=C(NO)C1(S(=O)(=O)N2CCN(c3cnn(-c4ccccc4)c(=O)c3)CC2)CCOCC1 [Example 322] | > 10000 nM | > 10000 nM
CCCCc1ccc(C2CCN(S(=O)(=O)C3(C(=O)NO)CCOCC3)CC2)nc1 [Example 323] | 6210 nM | 1290 nM
COC(=O)c1ccc(N2CCN(S(=O)(=O)C3(C(=O)NO)CCOCC3)CC2)cc1 [Example 324] | 1860 nM | 1150 nM
CCCCOc1ccc(N2CCN(S(=O)(=O)C3(C(=O)NO)CCN(CCOC)CC3)CC2)nc1 [Example 325] | 7510 nM | 912 nM
O=C(NO)C1(S(=O)(=O)N2CCN(c3ccc(OCC(F)(F)C(F)F)cc3)CC2)CCOCC1 [Example 326] | 6580 nM | 2430 nM
O=C(NO)C1(S(=O)(=O)N2CCN(c3ccc(-c4ccc(OC(F)(F)F)cc4)cc3)CC2)CCOCC1 [Example 327] | 7300 nM | 1370 nM
O=C(NO)C1(S(=O)(=O)N2CCN(c3ccc(-c4ccc(Cl)c(Cl)c4)cc3)CC2)CCOCC1 [Example 328] | 3720 nM | 2690 nM
O=C(NO)C1(S(=O)(=O)N2CCN(c3cnn(-c4ccccc4)c(=O)c3Cl)CC2)CCOCC1 [Example 329] | > 10000 nM | > 10000 nM
O=C(NO)C1(S(=O)(=O)N2CCC(c3ccc(OCC(F)(F)C(F)(F)F)cc3)CC2)CCOCC1 [Example 330] | 5360 nM | > 10000 nM
O=C(NO)C1(S(=O)(=O)N2CCN(c3ccc(Br)cn3)CC2)CCOCC1 [Example 331] | 279 nM | 13.5 nM
COCCN1CCC(C(=O)NO)(S(=O)(=O)N2CCN(c3ncccn3)CC2)CC1 [Example 332] | 5110 nM | > 10000 nM
O=C(NO)C1(S(=O)(=O)N2CCN(c3ccc(OCC4CC4)c(F)c3)CC2)CCOCC1 [Example 333] | > 10000 nM | 2360 nM

SMILES | Ki (MMP-1) | Ki (MMP-14)
CCCCc1cnc(N2CCN(S(=O)(=O)C3(C(=O)NO)CCN(CCOC)CC3)CC2)nc1 [Example 334] | > 10000 nM | 5770 nM
O=C(NO)C1(S(=O)(=O)N2CCN(c3ccc(CCC(F)(F)C(F)(F)F)cc3)CC2)CCN(C2CC2)CC1 [Example 335] | > 10000 nM | 9290 nM
O=C(NO)C1(S(=O)(=O)N2CCN(c3ccc(OCC(F)(F)C(F)F)cc3)CC2)CCOCC1 [Example 336] | 2640 nM | 2520 nM
O=C(NO)C1(S(=O)(=O)N2CCC(c3ccc(OC(F)(F)C(F)F)cc3)CC2)CCOCC1 [Example 337] | 3290 nM | 1610 nM
O=C(NO)C1(S(=O)(=O)N2CCC(c3ccc(CCCC(F)(F)F)cn3)CC2)CCOCC1 [Example 338] | 9860 nM | 1330 nM
O=C(NO)C1(S(=O)(=O)N2CCC(c3ccc(CCC(F)(F)C(F)(F)F)cn3)CC2)CCOCC1 [Example 340] | 5860 nM | 1300 nM
CCN1CCC(C(=O)NO)(S(=O)(=O)N2CCN(c3ccc(-c4ccccc4)c(F)c3)CC2)CC1 [Example 341] | > 10000 nM | 4300 nM
O=C(NO)C1(S(=O)(=O)N2CCN(c3ccc(OCCCC(F)(F)F)cc3)CC2)CC(O)C1 (stereo not shown) [Example 342] | > 10000 nM | > 10000 nM
O=C(NO)C1(S(=O)(=O)N2CCN(c3ncc(-c4ccc(Cl)cc4)s3)CC2)CCOCC1 [Example 343] | 5250 nM | 34.9 nM
Cc1ccc(-c2cnc(N3CCN(S(=O)(=O)C4(C(=O)NO)CCOCC4)CC3)s2)cc1 [Example 344] | 3520 nM | 75 nM
O=C(NO)C1(S(=O)(=O)N2CCN(c3ncc(-c4ccc(F)cc4)s3)CC2)CCOCC1 [Example 345] | 5540 nM | 38.1 nM
O=C(NO)C1(S(=O)(=O)N2CCN(c3ncc(-c4ccc(C(F)(F)F)cc4)s3)CC2)CCOCC1 [Example 346] | 5690 nM | 114 nM
CC(C)(C)c1ccc(-c2cnc(N3CCN(S(=O)(=O)C4(C(=O)NO)CCOCC4)CC3)s2)cc1 [Example 347] | 2770 nM | 84.6 nM
Cc1ccccc1-c1cnc(N2CCN(S(=O)(=O)C3(C(=O)NO)CCOCC3)CC2)s1 [Example 348] | > 10000 nM | 650 nM
O=C(NO)C1(S(=O)(=O)N2CCC(c3ccc(OC(F)(F)C(F)(F)F)cc3)CC2)CCOCC1 [Example 349] | > 10000 nM | > 10000 nM
O=C(NO)C1(S(=O)(=O)N2CCC(c3ccc(OCC(F)(F)C(F)F)cc3)CC2)CCN(C2CC2)CC1 [Example 350] | > 10000 nM | 4470 nM
O=C(NO)C1(S(=O)(=O)N2CCC(c3ccc(CCCC(F)(F)F)cc3)CC2)CCN(C2CC2)CC1 [Example 351] | > 10000 nM | 4740 nM
O=C(O)c1ccc(N2CCN(S(=O)(=O)C3(C(=O)NO)CCOCC3)CC2)cc1 [Example 352] | > 10000 nM | > 10000 nM
O=C(NO)C1(S(=O)(=O)N2CCC(c3ccc(CCCC(F)(F)F)cc3)CC2)CCOCC1 [Example 353] | 8580 nM | 2710 nM
CCCCOc1cccc(N2CCN(S(=O)(=O)C3(C(=O)NO)CCOCC3)CC2)c1 [Example 354] | > 10000 nM | 4140 nM

SMILES | Ki (MMP-1) | Ki (MMP-14)
O=C(NO)C1(S(=O)(=O)N2CCN(c3cccc(OCCCC(F)(F)F)c3)CC2)CCOCC1 [Example 355] | > 10000 nM | 3440 nM
CCCCCc1cccc(N2CCN(S(=O)(=O)C3(C(=O)NO)CCOCC3)CC2)c1 [Example 356] | > 10000 nM | 3420 nM
O=C(NO)C1(S(=O)(=O)N2CCC(c3ccc(OCC(F)(F)F)cc3)CC2)CCOCC1 [Example 357] | 3780 nM | 2290 nM
O=C(NO)C1(S(=O)(=O)N2CCN(c3ccc(CCCC(F)(F)F)cn3)CC2)CCOCC1 [Example 358] | > 10000 nM | 2950 nM
O=C(NO)C1(S(=O)(=O)N2CCN(c3ncc(-c4ccc(F)cc4F)s3)CC2)CCOCC1 [Example 359] | 2600 nM | 42.9 nM
O=C(NO)C1(S(=O)(=O)N2CCN(c3ncc(-c4ccc(-c5ccccc5)cc4)s3)CC2)CCOCC1 [Example 360] | > 2500 nM | 216 nM
O=C(NO)C1(S(=O)(=O)N2CCN(c3ncc(/C=C/c4ccccc4)s3)CC2)CCOCC1 [Example 361] | > 2500 nM | 497 nM and 460 nM
O=C(NO)C1(S(=O)(=O)N2CCN(c3ncc(-c4ccc5c(c4)OCO5)s3)CC2)CCOCC1 [Example 362] | 2120 nM | 150 nM
O=C(NO)C1(S(=O)(=O)N2CCN(c3ncc(-c4ccc([N+](=O)[O-])cc4)s3)CC2)CCOCC1 [Example 363] | 2350 nM | 27.8 nM
O=C(NO)C1(S(=O)(=O)N2CCN(c3ncc(-c4ccc(OC(F)(F)F)cc4)s3)CC2)CCOCC1 [Example 364] | 3940 nM | 69.7 nM
O=C(NO)C1(S(=O)(=O)N2CCN(c3ncc(-c4cccc(-c5ccccc5)c4)s3)CC2)CCOCC1 [Example 365] | > 10000 nM | > 10000 nM
CC(C)c1ccc(-c2cnc(N3CCN(S(=O)(=O)C4(C(=O)NO)CCOCC4)CC3)s2)cc1 [Example 366] | 2160 nM | 50.3 nM
O=C(NO)C1(S(=O)(=O)N2CCC(c3ccc(CCC(F)(F)F)cn3)CC2)CCOCC1 [Example 367] | 9760 nM | 3290 nM
O=C(NO)C1(S(=O)(=O)N2CCN(c3ncc(-c4ccc(O)cc4)s3)CC2)CCOCC1 [Example 368] | 3350 nM | 180 nM
O=C(NO)C1(S(=O)(=O)N2CCN(c3ncc(-c4ccc(Cl)c(Cl)c4)s3)CC2)CCOCC1 [Example 369] | > 10000 nM | 343 nM
Cc1cccc(-c2cnc(N3CCN(S(=O)(=O)C4(C(=O)NO)CCOCC4)CC3)s2)c1 [Example 370] | 5740 nM | 341 nM
COc1ccc(-c2cnc(N3CCN(S(=O)(=O)C4(C(=O)NO)CCOCC4)CC3)s2)cc1OC [Example 371] | 8250 nM | 1590 nM
O=C(NO)C1(S(=O)(=O)N2CCN(c3ccc(-c4ccccc4)cn3)CC2)CCOCC1 [Example 372] | 611 nM and 795 nM | 462 nM and 470 nM
O=C(NO)C1(S(=O)(=O)N2CCC(COCc3ccccc3)CC2)CCOCC1 [Example 373] | > 10000 nM | 79.7 nM
